Like-named read-outs stand apart in the source and are kept apart here.
Legend:
Fmr1 knock-out mice [1] = assay: Resident intruder in Fmr1 knock-out mice; format: in vivo; design: key: X indicates failure to ameliorate the phenotype; Y reversed the phenotype; details: repeat experiment, 15 days
Description: (§1) Fmr1 knock-out mice (n=10) were orally administered 10 mg/kg/day or 100 mg/kg/day belumosudil or vehicle (BID) for 15 days. Control groups included wild type mice and knock out mice with vehicle. Mice treated with 100 mg/kg belumosudil ameliorated the following behavioral phenotypes: open field/hyperactivity, self-grooming/stereotypy, hyponeophagia/anxiety, nesting/test of daily living, 3-chamber social novelty/sociability; resident intruder and fear conditioning.
(§2) The experiment was repeated where knock out mice received belumosudil at 20 mg/kg/day, 60 mg/kg/day and 100 mg/kg/day (BID) for 15 days. One group of knock out mice received 10 mg/kg/day belumosudil in combination with 10 mg/kg/day minocycline for 15 days. Control groups included wild type mice and knock out mice with vehicle. The results are set forth below, where X indicates failure to ameliorate the phenotype and Y reversed the phenotype: […]

Fmr1 knock-out mice [2] = assay: Nesting / test of daily living in Fmr1 knock-out mice; format: in vivo; design: key: X indicates failure to ameliorate the phenotype; Y reversed the phenotype; details: repeat experiment, 15 days
Description: as §1, §2

Fmr1 knock-out mice [3] = assay: 3-chamber social novelty / sociability in Fmr1 knock-out mice; format: in vivo; design: key: X indicates failure to ameliorate the phenotype; Y reversed the phenotype; details: repeat experiment, 15 days
Description: as §1, §2

[4] = cited from earlier work
Fmr1 knock-out mice [5] = assay: Self-grooming / stereotypy in Fmr1 knock-out mice; format: in vivo; design: key: X indicates failure to ameliorate the phenotype; Y reversed the phenotype; details: repeat experiment, 15 days
Description: as §1, §2

Fmr1 knock-out mice [6] = assay: Novel object recognition / cognition in Fmr1 knock-out mice; format: in vivo; design: key: X indicates failure to ameliorate the phenotype; Y reversed the phenotype; details: repeat experiment, 15 days
Description: as §1, §2

Fmr1 knock-out mice [7] = assay: Hyponeophagia / anxiety in Fmr1 knock-out mice; format: in vivo; design: key: X indicates failure to ameliorate the phenotype; Y reversed the phenotype; details: repeat experiment, 15 days
Description: as §1, §2

Fmr1 knock-out mice [8] = assay: Fear conditioning in Fmr1 knock-out mice; format: in vivo; design: key: X indicates failure to ameliorate the phenotype; Y reversed the phenotype; details: repeat experiment, 15 days
Description: as §1, §2

Fmr1 knock-out mice [9] = assay: Open field / hyperactivity in Fmr1 knock-out mice; format: in vivo; design: key: X indicates failure to ameliorate the phenotype; Y reversed the phenotype; details: repeat experiment, 15 days
Description: as §1, §2

[10] = belumosudil 100 mg/kg/day (BID)

Compound: CC(C)NC(=O)COc1cccc(-c2nc(Nc3ccc4[nH]ncc4c3)c3ccccc3n2)c1 [belumosudil]
- Resident Intruder (Fmr1 knock-out mice [1]; belumosudil 20 mg/kg/day (BID)): X
- Resident Intruder (Fmr1 knock-out mice [1]; belumosudil 60 mg/kg/day (BID)): Y
- Resident Intruder (Fmr1 knock-out mice [1]; [10]): Y
- Nesting: Test of Daily Living (Fmr1 knock-out mice [2]; belumosudil 20 mg/kg/day (BID)): Y
- Nesting: Test of Daily Living (Fmr1 knock-out mice [2]; belumosudil 60 mg/kg/day (BID)): Y
- Nesting: Test of Daily Living (Fmr1 knock-out mice [2]; [10]): Y
- 3 Chamber Social Novelty: Sociability (Fmr1 knock-out mice [3]; belumosudil 20 mg/kg/day (BID)): X
- 3 Chamber Social Novelty: Sociability (Fmr1 knock-out mice [3]; belumosudil 60 mg/kg/day (BID)): X
- 3 Chamber Social Novelty: Sociability (Fmr1 knock-out mice [3]; [10]): Y
- AE: cough ([4]; 200 mg once daily (QD) arm): 18
- AE: diarrhea ([4]; 200 mg once daily (QD) arm): 24%
- AE: dyspnea ([4]; 200 mg once daily (QD) arm): 20%
- AE: edema ([4]; 200 mg once daily (QD) arm): 24%
- AE: fatigue ([4]; 200 mg once daily (QD) arm): 30%
- AE: liver related investigations ([4]; 200 mg once daily (QD) arm): 20%
- AE: nausea ([4]; 200 mg once daily (QD) arm): 23%
- Serious AE: nausea ([4]; 200 mg once daily (QD) arm): 3%
- Serious AE: pneumonia ([4]; 200 mg once daily (QD) arm): 3%
- Serious AE: pyrexia ([4]; 200 mg once daily (QD) arm): 5%
- Serious AE: vomiting ([4]; 200 mg once daily (QD) arm): 3%
- AE: cough ([4]; 200 mg twice daily (BID) arm): 14%
- AE: diarrhea ([4]; 200 mg twice daily (BID) arm): 18%
- AE: dyspnea ([4]; 200 mg twice daily (BID) arm): 12%
- AE: edema ([4]; 200 mg twice daily (BID) arm): 15%
- AE: fatigue ([4]; 200 mg twice daily (BID) arm): 18%
- AE: liver related investigations ([4]; 200 mg twice daily (BID) arm): 23%
- AE: nausea ([4]; 200 mg twice daily (BID) arm): 20%
- Serious AE: nausea ([4]; 200 mg twice daily (BID) arm): 2%
- Serious AE: pneumonia ([4]; 200 mg twice daily (BID) arm): 3%
- Serious AE: pyrexia ([4]; 200 mg twice daily (BID) arm): 0
- Serious AE: vomiting ([4]; 200 mg twice daily (BID) arm): 2%
- safety and efficacy in clinical trial ([4]; 132 patients, 200 mg QD or 200 mg BID): safe and efficacious
- Self-Grooming: Stereotypy (Fmr1 knock-out mice [5]; belumosudil 20 mg/kg/day (BID)): X
- Self-Grooming: Stereotypy (Fmr1 knock-out mice [5]; belumosudil 60 mg/kg/day (BID)): X
- Self-Grooming: Stereotypy (Fmr1 knock-out mice [5]; [10]): Y
- Novel Object Recognition: Cognition (Fmr1 knock-out mice [6]; belumosudil 20 mg/kg/day (BID)): X
- Novel Object Recognition: Cognition (Fmr1 knock-out mice [6]; belumosudil 60 mg/kg/day (BID)): X
- Novel Object Recognition: Cognition (Fmr1 knock-out mice [6]; [10]): X
- Hyponeophagia: Anxiety (Fmr1 knock-out mice [7]; belumosudil 20 mg/kg/day (BID)): X
- Hyponeophagia: Anxiety (Fmr1 knock-out mice [7]; belumosudil 60 mg/kg/day (BID)): X
- Hyponeophagia: Anxiety (Fmr1 knock-out mice [7]; [10]): Y
- Fear Conditioning (Fmr1 knock-out mice [8]; belumosudil 20 mg/kg/day (BID)): X
- Fear Conditioning (Fmr1 knock-out mice [8]; belumosudil 60 mg/kg/day (BID)): Y
- Fear Conditioning (Fmr1 knock-out mice [8]; [10]): Y
- Open Field: Hyperactivity (Fmr1 knock-out mice [9]; belumosudil 20 mg/kg/day (BID)): X
- Open Field: Hyperactivity (Fmr1 knock-out mice [9]; belumosudil 60 mg/kg/day (BID)): X
- Open Field: Hyperactivity (Fmr1 knock-out mice [9]; [10]): Y

— US20240342175A1, “Compositions and Methods for Treating Spinal Cord Injury and Synaptic Dysfunction” (priority 2021, published 2024)
